This is an account of results in patent US9855268B2, “Triazolo[4,5-d]pyrimidine derivatives” (Merck Patent GmbH, priority 2013, dated 2018).

Experiment [1] deals with T1, GCN2 (Homo sapiens, UniProt Q9P2K8). Kind of experiment: GCN2 enzyme assay (TR-FRET Lanthascreen, GFP-eIF2alpha phosphorylation). The settings on record: 10 μM ATP, 80 nM GFP-eIF2a, 30 nM GCN2. Format: biochemical. In short, it runs like this:
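Phosphorylation of GFP-eIF2alpha (80 nM) by GCN2 run at room temperature with 10 μM ATP. After EDTA quench, product quantified by Lanthascreen TR-FRET (antibody–GFP complex, 340 nm excitation).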
Target sequence in this assay (Q9P2K8 whole entry, species assumed): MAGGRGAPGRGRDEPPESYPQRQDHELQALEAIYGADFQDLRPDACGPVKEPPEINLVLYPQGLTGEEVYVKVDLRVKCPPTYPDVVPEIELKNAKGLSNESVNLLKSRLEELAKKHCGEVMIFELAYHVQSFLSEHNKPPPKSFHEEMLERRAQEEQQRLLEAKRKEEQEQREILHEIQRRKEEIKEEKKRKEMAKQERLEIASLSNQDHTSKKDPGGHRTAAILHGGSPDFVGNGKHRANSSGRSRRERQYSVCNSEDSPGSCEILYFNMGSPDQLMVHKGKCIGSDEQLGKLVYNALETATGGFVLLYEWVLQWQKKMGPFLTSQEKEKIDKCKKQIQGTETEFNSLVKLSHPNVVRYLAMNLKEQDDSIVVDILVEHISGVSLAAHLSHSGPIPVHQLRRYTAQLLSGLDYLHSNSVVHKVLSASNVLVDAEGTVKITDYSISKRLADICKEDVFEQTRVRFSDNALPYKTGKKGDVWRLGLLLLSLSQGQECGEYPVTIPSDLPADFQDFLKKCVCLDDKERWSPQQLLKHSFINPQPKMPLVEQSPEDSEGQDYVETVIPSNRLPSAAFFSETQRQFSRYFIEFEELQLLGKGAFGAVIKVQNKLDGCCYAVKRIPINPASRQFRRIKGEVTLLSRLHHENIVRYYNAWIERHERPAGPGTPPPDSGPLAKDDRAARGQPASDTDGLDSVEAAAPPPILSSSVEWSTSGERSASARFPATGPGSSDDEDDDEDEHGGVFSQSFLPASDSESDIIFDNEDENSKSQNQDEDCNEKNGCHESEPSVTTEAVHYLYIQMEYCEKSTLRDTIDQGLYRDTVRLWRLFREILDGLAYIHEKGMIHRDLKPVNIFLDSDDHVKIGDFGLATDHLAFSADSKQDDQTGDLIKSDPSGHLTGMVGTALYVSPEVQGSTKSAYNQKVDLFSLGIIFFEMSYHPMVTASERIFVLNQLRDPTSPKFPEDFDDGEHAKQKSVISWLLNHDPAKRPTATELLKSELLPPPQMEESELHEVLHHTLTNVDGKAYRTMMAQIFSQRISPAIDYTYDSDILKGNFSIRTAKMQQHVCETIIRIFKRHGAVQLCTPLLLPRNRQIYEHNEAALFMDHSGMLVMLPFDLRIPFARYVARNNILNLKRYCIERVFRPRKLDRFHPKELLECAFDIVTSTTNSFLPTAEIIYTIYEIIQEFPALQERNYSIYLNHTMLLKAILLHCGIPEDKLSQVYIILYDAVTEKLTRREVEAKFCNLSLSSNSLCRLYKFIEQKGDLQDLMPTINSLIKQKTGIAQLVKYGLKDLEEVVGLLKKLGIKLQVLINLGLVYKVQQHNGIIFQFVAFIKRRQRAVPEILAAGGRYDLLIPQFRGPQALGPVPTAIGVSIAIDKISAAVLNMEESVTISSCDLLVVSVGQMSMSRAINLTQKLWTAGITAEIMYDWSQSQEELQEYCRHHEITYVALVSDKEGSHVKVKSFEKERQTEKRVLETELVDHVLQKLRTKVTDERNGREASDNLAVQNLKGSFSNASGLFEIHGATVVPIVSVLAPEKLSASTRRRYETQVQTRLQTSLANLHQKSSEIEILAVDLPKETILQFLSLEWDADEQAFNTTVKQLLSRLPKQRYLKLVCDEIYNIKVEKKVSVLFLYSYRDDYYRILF

Another experiment has as its target GSK3α(h) (Homo sapiens, UniProt P49840). The experiment in a line: GSK3α radiometric kinase assay (33P-ATP, phospho GS2 peptide). Format: biochemical. Particulars: read-out: IC50 GSK3α (enzyme assay). In short, it runs like this: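 Human GSK3α incubated with 20 μM phospho-GS2 peptide in 8 mM MOPS pH 7,0, 10 mM Mg-acetate and [γ-33P]ATP (concentration as required), started with MgATP. After 40 minutes at room temperature, stopped with phosphoric acid; 33P incorporation measured by filtermat spotting and scintillation counting.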

Another experiment concerns the target GSK3β(h) (Homo sapiens, UniProt P49841). The experiment in a line: GSK3β radiometric kinase assay (33P-ATP, phospho GS2 peptide). The settings on record: read-out: IC50 GSK3β (enzyme assay). Format: biochemical. In short, it runs like this:
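Human GSK3β in 8 mM MOPS pH 7,0, 0,2 mM EDTA, 10 mM Mg-acetate with 20 μM phospho-GS2 peptide; the reaction was started with [γ-33P]MgATP at an unstated level. After 40 min at room temperature it was stopped with phosphoric acid, and the peptide was captured on P30 filtermat for scintillation counting.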

For experiment [2], the target named is T1, GCN2. The experiment in a line: Cellular assay of GCN2 activity (phospho-eIF2alpha immunocytochemistry after tryptophanol). Format: cell-based. The settings on record: Human U2OS cells, 2 h compound, 600 μM tryptophanol 30 min. Also on record: endogenous in cells; host or cells: U2OS. In short, it runs like this:
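Readout in human U2OS cells: compound pretreatment 2 h, then tryptophanol (600 μM final) for 30 min to trigger GCN2 signalling. Fixed, permeabilised cells quantified by immunocytochemistry for phosphorylation, normalised to DMSO controls as % effect; IC50 from concentration-response.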
Target sequence in this assay (Q9P2K8 whole entry): as the sequence (Q9P2K8 whole entry, species assumed) above

GSK3α(h), sequence (P49840 whole entry): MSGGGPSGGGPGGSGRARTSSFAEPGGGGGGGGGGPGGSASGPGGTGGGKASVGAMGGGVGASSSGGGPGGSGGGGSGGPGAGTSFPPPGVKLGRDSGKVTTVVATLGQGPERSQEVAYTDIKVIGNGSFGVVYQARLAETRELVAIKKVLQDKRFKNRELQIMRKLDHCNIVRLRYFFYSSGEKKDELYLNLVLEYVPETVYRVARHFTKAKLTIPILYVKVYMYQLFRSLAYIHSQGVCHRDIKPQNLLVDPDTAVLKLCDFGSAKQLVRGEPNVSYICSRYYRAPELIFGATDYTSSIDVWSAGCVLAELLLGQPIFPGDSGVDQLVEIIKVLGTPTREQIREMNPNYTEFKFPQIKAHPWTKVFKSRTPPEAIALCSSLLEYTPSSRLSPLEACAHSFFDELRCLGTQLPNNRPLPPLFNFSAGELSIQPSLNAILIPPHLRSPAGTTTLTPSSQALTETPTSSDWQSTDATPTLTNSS
GSK3β(h), sequence (P49841 whole entry): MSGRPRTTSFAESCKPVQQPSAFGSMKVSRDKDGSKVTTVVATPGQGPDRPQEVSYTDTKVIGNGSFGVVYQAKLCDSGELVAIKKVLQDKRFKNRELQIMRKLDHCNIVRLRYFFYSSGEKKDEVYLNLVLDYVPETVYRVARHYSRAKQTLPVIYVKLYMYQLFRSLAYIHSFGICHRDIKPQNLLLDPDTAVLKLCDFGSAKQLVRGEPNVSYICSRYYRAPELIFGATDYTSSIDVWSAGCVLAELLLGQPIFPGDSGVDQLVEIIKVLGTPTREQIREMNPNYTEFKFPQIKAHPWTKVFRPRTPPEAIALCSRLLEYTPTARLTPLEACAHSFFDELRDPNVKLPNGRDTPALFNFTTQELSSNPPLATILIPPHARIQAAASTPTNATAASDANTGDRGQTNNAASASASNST

For orientation: IC50 means the concentration that gives 50% inhibition. With `CCOCCn1cc(-c2ccc(-n3nnc4cnc(N[C@@H]5CC[C@@H](O)C5)nc43)cc2)cn1` [A227, (1R,3R)-3-(3-{4-[1-(2-ethoxy-ethyl)-1H-pyrazol-4-yl]-phenyl}-3H-[1,2,3]triazolo[4,5-d]pyrimidin-5-ylamino)-cyclopentanol], the IC50 against GCN2 [1] was below 1000 nM; on GSK3α(h), below 1000 nM; on GSK3β(h), below 1000 nM; against GCN2 [2], 1000 to 5000 nM.
With `COCCn1cc(-c2ccc(-n3nnc4cnc(N[C@@H]5CC[C@@H](O)C5)nc43)cc2F)cn1` [A228, (1R,3R)-3-(3-{3-fluoro-4-[1-(2-methoxy-ethyl)-1H-pyrazol-4-yl]-phenyl}-3H-[1,2,3]triazolo[4,5-d]pyrimidin-5-ylamino)-cyclopentanol], the IC50 at GCN2 [1] is below 1000 nM; on GSK3α(h), below 1000 nM; on GSK3β(h) it was below 1000 nM; at GCN2 [2] it was 5000 to 10000 nM.
For `COCCn1cc(-c2ccc(-n3nnc4cnc(N[C@@H]5CC[C@@H](C(N)=O)C5)nc43)cc2C)cn1` [A230, (1R,3R)-3-(3-{4-[1-(2-methoxy-ethyl)-1H-pyrazol-4-yl]-3-methyl-phenyl}-3H-[1,2,3]triazolo[4,5-d]pyrimidin-5-ylamino)-cyclopentanecarboxylic acid amide], the IC50 against GCN2 [1] is below 1000 nM; on GSK3α(h) it was below 1000 nM; at GSK3β(h), below 1000 nM; against GCN2 [2] it was 1000 to 5000 nM.
For `CC(C)(O)Cn1cc(-c2ccc(-n3nnc4cnc(N[C@@H]5CC[C@@H](O)C5)nc43)cc2)cn1` [A232, (1R,3R)-3-(3-{4-[1-(2-hydroxy-2-methyl-propyl)-1H-pyrazol-4-yl]-phenyl}-3H-[1,2,3]triazolo[4,5-d]pyrimidin-5-ylamino)-cyclopentanol], the IC50 against GCN2 [1] is below 1000 nM; at GSK3α(h), below 1000 nM; at GSK3β(h) it was below 1000 nM; against GCN2 [2], 5000 to 10000 nM.
On to `COCCn1cc(-c2ccc(-n3nnc4cnc(N[C@@H]5CC[C@@H](C(=O)NCC6CCN(C)CC6)C5)nc43)cc2)cn1` [A235, (1R,3R)-3-(3-{4-[1-(2-methoxy-ethyl)-1H-pyrazol-4-yl]-phenyl}-3H-[1,2,3]triazolo[4,5-d]pyrimidin-5-ylamino)-cyclopentanecarboxylic acid (1-methyl-piperidin-4-ylmethyl)-amide], for which the IC50 was below 1000 nM against GCN2 [1], below 1000 nM on GSK3α(h), below 1000 nM at GSK3β(h) and 1000 to 5000 nM on GCN2 [2].
Take `CCOc1ccc(-n2nnc3cnc(N[C@@H]4CC[C@@H](C(=O)NCCC(C)(C)O)C4)nc32)cc1` [A240, (1R,3R)-3-[3-(4-ethoxy-phenyl)-3H-[1,2,3]triazolo[4,5-d]pyrimidin-5-ylamino]-cyclopentanecarboxylic acid (3-hydroxy-3-methyl-butyl)-amide]: the half-inhibitory concentration (IC50) was below 1000 nM at GCN2 [1], below 1000 nM at GSK3α(h), below 1000 nM on GSK3β(h) and 5000 to 10000 nM at GCN2 [2].
With `COc1ccc(-n2nnc3cnc(N[C@@H]4CC[C@@H](C(=O)NCCN5CCN(C)CC5)C4)nc32)cc1` [A244, (1R,3R)-3-[3-(4-methoxy-phenyl)-3H-[1,2,3]triazolo[4,5-d]pyrimidin-5-ylamino]-cyclopentanecarboxylic acid [2-(4-methyl-piperazin-1-yl)-ethyl]-amide], the IC50 against GCN2 [1], on GSK3α(h), at GSK3β(h) and at GCN2 [2] was below 1000 nM throughout.
As for `Cc1ccc2cc(-n3nnc4cnc(N[C@@H]5CC[C@@H](C(=O)NCCO)C5)nc43)ccc2n1` [A245, (1R,3R)-3-[3-(2-methyl-quinolin-6-yl)-3H-[1,2,3]triazolo[4,5-d]pyrimidin-5-ylamino]-cyclopentanecarboxylic acid (2-hydroxy-ethyl)-amide], the IC50 at GCN2 [1], at GSK3α(h), on GSK3β(h) and at GCN2 [2] was below 1000 nM each time.
`COCCNC(=O)[C@@H]1CC[C@@H](Nc2ncc3nnn(-c4ccc5nc(C)ccc5c4)c3n2)C1` [A246, (1R,3R)-3-[3-(2-methyl-quinolin-6-yl)-3H-[1,2,3]triazolo[4,5-d]pyrimidin-5-ylamino]-cyclopentanecarboxylic acid (2-methoxy-ethyl)-amide]: the IC50 against GCN2 [1] is below 1000 nM; at GSK3α(h), below 1000 nM; on GSK3β(h), below 1000 nM; at GCN2 [2], 1000 to 5000 nM.
In the case of `CCOc1ccc(-n2nnc3cnc(N[C@@H]4CC[C@@H](C(=O)NCCO)C4)nc32)cc1` [A247, (1R,3R)-3-[3-(4-ethoxy-phenyl)-3H-[1,2,3]triazolo[4,5-d]pyrimidin-5-ylamino]-cyclopentanecarboxylic acid (2-hydroxy-ethyl)-amide], the IC50 at GCN2 [1], at GSK3α(h), on GSK3β(h) and against GCN2 [2] was below 1000 nM in each case.
As to `CCOc1ccc(-n2nnc3cnc(N[C@@H]4CC[C@@H](C(=O)NCCOC)C4)nc32)cc1` [A248, (1R,3R)-3-[3-(4-ethoxy-phenyl)-3H-[1,2,3]triazolo[4,5-d]pyrimidin-5-ylamino]-cyclopentanecarboxylic acid (2-methoxy-ethyl)-amide], the IC50 against GCN2 [1] is below 1000 nM; at GSK3α(h), below 1000 nM; on GSK3β(h), below 1000 nM; at GCN2 [2] it was 1000 to 5000 nM.
As to `CCOc1ccc(-n2nnc3cnc(N[C@@H]4CC[C@@H](C(=O)NCC5CCN(C)CC5)C4)nc32)cc1` [A249, (1R,3R)-3-[3-(4-ethoxy-phenyl)-3H-[1,2,3]triazolo[4,5-d]pyrimidin-5-ylamino]-cycloentanecarboxyic acid (1-methyl-piperidin-4-ylmethyl)-amide], the IC50 against GCN2 [1] is below 1000 nM; on GSK3α(h) it was below 1000 nM; on GSK3β(h), below 1000 nM; at GCN2 [2], 1000 to 5000 nM.
As to `Cc1ccc2cc(-n3nnc4cnc(N[C@@H]5CC[C@@H](C(=O)NCCN6CCN(C)CC6)C5)nc43)ccc2n1` [A250, (1R,3R)-3-[3-(2-methyl-quinolin-6-yl)-3H-[1,2,3]triazolo[4,5-d]pyrimidin-5-ylamino]-cyclopentanecarboxylic acid [2-(4-methyl-piperazin-1-yl)-ethyl]-amide], the IC50 against GCN2 [1] was below 1000 nM; on GSK3α(h) it was below 1000 nM; on GSK3β(h) it was below 1000 nM; on GCN2 [2], 1000 to 5000 nM.
As for `Cc1ccc2cc(-n3nnc4cnc(N[C@@H]5CC[C@@H](C(=O)NCC6CCN(C)CC6)C5)nc43)ccc2n1` [A252, (1R,3R)-3-[3-(2-methyl-quinolin-6-yl)-3H-[1,2,3]triazolo[4,5-d]pyrimidin-5-ylamino]-cyclopentanecarboxylic acid (1-methyl-piperidin-4-ylmethyl)-amide], the IC50 on GCN2 [1] was below 1000 nM; at GSK3α(h) it was below 1000 nM; at GSK3β(h) it was below 1000 nM; at GCN2 [2], 1000 to 5000 nM.
Take `OCCn1cc(-c2ccc(-n3nnc4cnc(N[C@@H]5CC[C@@H](O)C5)nc43)cc2)cn1` [A259, (1R,3R)-3-(3-{4-[1-(2-hydroxy-ethyl)-1H-pyrazol-4-yl]-phenyl}-3H-[1,2,3]triazolo[4,5-d]pyrimidin-5-ylamino)-cyclopentanol]: the IC50 was below 1000 nM against GCN2 [1], below 1000 nM at GSK3α(h), below 1000 nM at GSK3β(h) and 1000 to 5000 nM on GCN2 [2].
Take `NC(=O)[C@@H]1CC[C@@H](Nc2ncc3nnn(-c4ccc(-c5cnn(CCO)c5)c(F)c4)c3n2)C1` [A260, (1R,3R)-3-(3-{3-fluoro-4-[1-(2-hydroxy-ethyl)-1H-pyrazol-4-yl]-phenyl}-3H-[1,2,3]triazolo[4,5-d]pyrimidin-5-ylamino)-cyclopentanecarboxylic acid amide]: the IC50 at GCN2 [1] is below 1000 nM; on GSK3α(h) it was below 1000 nM; at GSK3β(h), below 1000 nM; on GCN2 [2], 5000 to 10000 nM.
As for `COc1ccc(-n2nnc3cnc(N[C@@H]4C=C[C@@H](C(N)=O)C4)nc32)cc1` [A273, (1S,4S)-4-[3-(4-Methoxy-phenyl)-3H-[1,2,3]triazolo[4,5-d]pyrimidin-5-ylamino]-cyclopent-2-enecarboxylic acid amide], the IC50 against GCN2 [1] is below 1000 nM; at GSK3α(h), below 1000 nM; on GSK3β(h), below 1000 nM; against GCN2 [2] it was 5000 to 10000 nM.
Consider `COCCOc1ccc(-n2nnc3cnc(N[C@@H]4CC[C@@H](C#N)C4)nc32)cc1` [A274, (1R,3R)-3-{3-[4-(2-methoxy-ethoxy)-phenyl]-3H-[1,2,3]triazolo[4,5-d]pyrimidin-5-ylamino}-cyclopentanecarbonitrile], for which the IC50 against GCN2 [1] was below 1000 nM; at GSK3α(h), below 1000 nM; at GSK3β(h), below 1000 nM; against GCN2 [2], 1000 to 5000 nM.
For `NC(=O)[C@@H]1CC[C@@H](Nc2ncc3nnn(-c4ccc(OCCN5CCOCC5)cc4)c3n2)C1` [A277, (1R,3R)-3-{3-[4-(2-morpholin-4-yl-ethoxy)-phenyl]-3H-[1,2,3]triazolo[4,5-d]pyrimidin-5-ylamino}-cyclopentanecarboxylic acid amide], the IC50 was below 1000 nM against GCN2 [1], below 1000 nM at GSK3α(h), below 1000 nM at GSK3β(h) and 5000 to 10000 nM at GCN2 [2].
